Assay results taken from patent publication US20260055113A1, “HETEROARYL COMPOUNDS FOR THE TREATMENT OF CANCER” (Hoffmann-La Roche Inc., priority 2022, published 2026).

Tests used:
[1] = Human microsomal stability assay; format: in vitro ADME; conditions: human liver microsomes 0.5 mg/mL, 1 μM test compound, 37° C., pH 7.4
Description: Human liver microsomes (Cat. NO.: 452117, Corning, USA) were preincubated with test compound for 10 minutes at 37° C. in 100 mM potassium phosphate buffer, pH 7.4. The reactions were initiated by adding NADPH regenerating system. The final incubation mixtures contained 1 μM test compound, 0.5 mg/mL liver microsomal protein, 1 mM MgCl2, 1 mM NADP, 1 unit/mL isocitric dehydrogenase and 6 mM isocitric acid in 100 mM potassium phosphate buffer, pH 7.4. After incubation times of 0, 3, 6, 9, 15 and 30 minutes at 37° C., 300 μL of cold ACN (including internal standard) was added to 100 μL incubation mixture to terminate the reaction. Following precipitation and centrifugation, 100 μL supernatant will be taken out and added 300 μL water. The amount of compound remaining in the samples was determined by LC-MS/MS. Controls of no NADPH regenerating system at zero and 30 minutes were also prepared and analyzed. The results were categorized as: low (<7.0 mL/min/kg), medium (7.0-16.2 mL/min/kg) and high (16.2-23.2 mL/min/kg).

CD73 = CD73 (Homo sapiens (Human), UniProt P21589); experiment: CD73 cellular assay (MDA-MB-231 cells, malachite readout); format: cell-based; conditions: AMP substrate, 45 min, read-out: Cellular IC50 against CD73
CD73, sequence (P21589 27-574): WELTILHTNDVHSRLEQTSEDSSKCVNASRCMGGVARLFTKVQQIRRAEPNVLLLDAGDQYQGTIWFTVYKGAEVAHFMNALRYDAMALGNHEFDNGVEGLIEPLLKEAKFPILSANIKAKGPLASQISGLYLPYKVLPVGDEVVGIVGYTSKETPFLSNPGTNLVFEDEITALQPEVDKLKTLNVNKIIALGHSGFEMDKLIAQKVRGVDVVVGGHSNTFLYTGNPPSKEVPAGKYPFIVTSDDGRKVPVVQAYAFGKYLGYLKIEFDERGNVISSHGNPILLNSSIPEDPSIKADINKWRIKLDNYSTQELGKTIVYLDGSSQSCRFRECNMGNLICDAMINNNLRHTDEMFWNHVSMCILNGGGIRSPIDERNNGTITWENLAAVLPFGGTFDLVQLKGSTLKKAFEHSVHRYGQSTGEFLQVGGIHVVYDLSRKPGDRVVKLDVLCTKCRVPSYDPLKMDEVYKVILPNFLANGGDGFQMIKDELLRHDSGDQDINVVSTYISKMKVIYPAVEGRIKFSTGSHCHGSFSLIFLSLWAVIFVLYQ
Description: After incubating with compounds for 30 minutes, 40 μL of AMP working solution (200 μM AMP in assay buffer) was added into each well in the assay plate. The assay plate was then incubated in a 5% CO2 incubator (Thermo Fisher Scientific) at 37° C. for 45 min. After the reaction was completed, 50 μL of the supernatants was collected and transferred into a new 384 well plate. 10 μL of Malachite A was added to each well in the assay plate and incubated for 10 minutes. 10 μL of Malachite B was then added to each corresponding well of the plate and incubated for 30 minutes.

Structure (SMILES)	CL (h) [1] [mL/min/kg]	IC50 (CD73) [nM]
C[C@H](Nc1nn(C)c2nnc(-c3c[nH]c(=O)[nH]c3=O)cc12)c1ccccc1 [Example 37, 5-[1-methyl-3-[[(1S)-1-phenylethyl]amino]pyrazolo[3,4-c]pyridazin-5-yl]-1H-pyrimidine-2,4-dione]	6.15	4
CC(Oc1nn(C)c2nnc(-c3c[nH]c(=O)[nH]c3=O)cc12)c1cccc(C#N)c1 (stereo not drawn) [Example 11, 3-[1-[5-(2,4-dioxo-1H-pyrimidin-5-yl)-1-methyl-pyrazolo[3,4-c]pyridazin-3-yl]oxyethyl]benzonitrile]	6.15	2.9
CC(Oc1nn(C)c2nnc(-c3c[nH]c(=O)[nH]c3=O)cc12)c1ccccc1Cl (stereo not drawn) [Example 13, 5-[3-[1-(2-chlorophenyl)ethoxy]-1-methyl-pyrazolo[3,4-c]pyridazin-5-yl]-1H-pyrimidine-2,4-dione]	7.84	5.5
CC(C1CCCC1)N(C)c1nn(C)c2nnc(-c3c[nH]c(=O)[nH]c3=O)cc12 (stereo not drawn) [Example 35, 5-[3-[1-cyclopentylethyl(methyl)amino]-1-methyl-pyrazolo[3,4-c]pyridazin-5-yl]-1H-pyrimidine-2,4-dione]		2.1
CC(Oc1nn(C)c2nnc(-c3c[nH]c(=O)[nH]c3=O)cc12)c1nc2ccccc2o1 (stereo not drawn) [Example 25, 5-[3-[1-(1,3-benzoxazol-2-yl)ethoxy]-1-methyl-pyrazolo[3,4-c]pyridazin-5-yl]-1H-pyrimidine-2,4-dione]	8.85	8
Cn1nc(C2(c3ccccc3)CC2)c2cc(-c3c[nH]c(=O)[nH]c3=O)nnc21 [Example 6, 5-[1-methyl-3-(1-phenylcyclopropyl)pyrazolo[3,4-c]pyridazin-5-yl]-1H-pyrimidine-2,4-dione]	6.15	12.9
C[C@H](Oc1nn(C)c2nnc(-c3c[nH]c(=O)[nH]c3=O)cc12)c1cccc(Cl)n1 [Example 44, 5-[3-[(1S)-1-(6-chloro-2-pyridyl)ethoxy]-1-methyl-pyrazolo[3,4-c]pyridazin-5-yl]-1H-pyrimidine-2,4-dione]	6.15	2.3
CC(Oc1nn(C)c2nnc(-c3c[nH]c(=O)[nH]c3=O)cc12)c1ccc(C#N)cc1 (stereo not drawn) [Example 12, 4-[1-[5-(2,4-dioxo-1H-pyrimidin-5-yl)-1-methyl-pyrazolo[3,4-c]pyridazin-3-yl]oxyethyl]benzonitrile]	6.15	3.4
CC(Oc1nn(C)c2nnc(-c3c[nH]c(=O)[nH]c3=O)cc12)c1nn(C)cc1Cl (stereo not drawn) [Example 23, 5-[3-[1-(4-chloro-1-methyl-pyrazol-3-yl)ethoxy]-1-methyl-pyrazolo[3,4-c]pyridazin-5-yl]-1H-pyrimidine-2,4-dione]		58.6
CC(Oc1nn(C)c2nnc(-c3c[nH]c(=O)[nH]c3=O)cc12)c1cccc(Cl)c1 (stereo not drawn) [Example 14, 5-[3-[1-(3-chlorophenyl)ethoxy]-1-methyl-pyrazolo[3,4-c]pyridazin-5-yl]-1H-pyrimidine-2,4-dione]	7.01	4
CC(Oc1nn(C)c2nnc(-c3c[nH]c(=O)[nH]c3=O)cc12)c1ccnn1C (stereo not drawn) [Example 24, 5-[1-methyl-3-[1-(2-methylpyrazol-3-yl)ethoxy]pyrazolo[3,4-c]pyridazin-5-yl]-1H-pyrimidine-2,4-dione]	6.26	19.6
CC(Oc1nn(C)c2nnc(-c3c[nH]c(=O)[nH]c3=O)cc12)c1cccnc1 (stereo not drawn) [Example 18, 5-[1-methyl-3-[1-(3-pyridyl)ethoxy]pyrazolo[3,4-c]pyridazin-5-yl]-1H-pyrimidine-2,4-dione]	6.22	4.3
CC(Oc1nn(C)c2nnc(-c3c[nH]c(=O)[nH]c3=O)cc12)c1cccc(C(F)(F)F)c1 (stereo not drawn) [Example 20, 5-[1-methyl-3-[1-[3-(trifluoromethyl)phenyl]ethoxy]pyrazolo[3,4-c]pyridazin-5-yl]-1H-pyrimidine-2,4-dione]	6.36	6.9

The remaining compounds from weak to strong by IC50 (CD73), led by results:

CL (h) [1] [mL/min/kg]	IC50 (CD73) [nM]	Structure (SMILES)
6.15	159	Cn1nnc2nnc(-c3c[nH]c(=O)[nH]c3=O)cc21 [Example 4, 5-(1-methyltriazolo[4,5-c]pyridazin-6-yl)-1H-pyrimidine-2,4-dione]
	104	Cn1ncc2nnc(-c3c[nH]c(=O)[nH]c3=O)cc21 [Example 3, 5-(1-methylpyrazolo[4,3-c]pyridazin-6-yl)-1H-pyrimidine-2,4-dione]
8.14	56.9	Cc1nn(C)c2nnc(-c3c[nH]c(=O)[nH]c3=O)cc12 [Example 1, 5-(1,3-dimethylpyrazolo[3,4-c]pyridazin-5-yl)-1H-pyrimidine-2,4-dione]
6.15	46.7	Cn1nc(Cl)c2nnc(-c3c[nH]c(=O)[nH]c3=O)cc21 [Example 9, 5-(3-chloro-1-methyl-pyrazolo[4,3-c]pyridazin-6-yl)-1H-pyrimidine-2,4-dione]
6.15	9.9	C[C@H](Oc1nn(C)c2nnc(-c3c[nH]c(=O)[nH]c3=O)cc12)c1ccc(Cl)nn1 [Example 45, 5-[3-[(1S)-1-(6-chloropyridazin-3-yl)ethoxy]-1-methyl-pyrazolo[3,4-c]pyridazin-5-yl]-1H-pyrimidine-2,4-dione]
	5.5	CC(N(C)c1nn(C)c2nnc(-c3c[nH]c(=O)[nH]c3=O)cc12)C(C)(C)C (stereo not drawn) [Example 34, 5-[1-methyl-3-[methyl(1,2,2-trimethylpropyl)amino]pyrazolo[3,4-c]pyridazin-5-yl]-1H-pyrimidine-2,4-dione]
6.15	4.1	CC(Oc1nn(C)c2nnc(-c3c[nH]c(=O)[nH]c3=O)cc12)c1ccc(Cl)cc1 (stereo not drawn) [Example 15, 5-[3-[1-(4-chlorophenyl)ethoxy]-1-methyl-pyrazolo[3,4-c]pyridazin-5-yl]-1H-pyrimidine-2,4-dione]
7.78	4.1	Cc1ccnc([C@H](C)Oc2nn(C)c3nnc(-c4c[nH]c(=O)[nH]c4=O)cc23)c1 [Example 42, 5-[1-methyl-3-[(1S)-1-(4-methyl-2-pyridyl)ethoxy]pyrazolo[3,4-c]pyridazin-5-yl]-1H-pyrimidine-2,4-dione]
9.03	3.9	CC(Oc1nn(C)c2nnc(-c3c[nH]c(=O)[nH]c3=O)cc12)c1ccncc1 (stereo not drawn) [Example 19, 5-[1-methyl-3-[1-(4-pyridyl)ethoxy]pyrazolo[3,4-c]pyridazin-5-yl]-1H-pyrimidine-2,4-dione]
8.14	3.9	Cc1cnc(C(C)Oc2nn(C)c3nnc(-c4c[nH]c(=O)[nH]c4=O)cc23)s1 (stereo not drawn) [Example 22, 5-[1-methyl-3-[1-(5-methylthiazol-2-yl)ethoxy]pyrazolo[3,4-c]pyridazin-5-yl]-1H-pyrimidine-2,4-dione]
6.15	3.7	C[C@H](Oc1nn(C)c2nnc(-c3c[nH]c(=O)[nH]c3=O)cc12)c1ccc(F)cn1 [Example 43, 5-[3-[(1S)-1-(5-fluoro-2-pyridyl)ethoxy]-1-methyl-pyrazolo[3,4-c]pyridazin-5-yl]-1H-pyrimidine-2,4-dione]
6.15	3.7	CC(Oc1nn(C)c2nnc(-c3c[nH]c(=O)[nH]c3=O)cc12)c1ccccn1 (stereo not drawn) [Example 17, 5-[1-methyl-3-[1-(2-pyridyl)ethoxy]pyrazolo[3,4-c]pyridazin-5-yl]-1H-pyrimidine-2,4-dione]
6.15	3.5	CC(Oc1nn(C)c2nnc(-c3c[nH]c(=O)[nH]c3=O)cc12)c1ccc(F)cc1 (stereo not drawn) [Example 16, 5-[3-[1-(4-fluorophenyl)ethoxy]-1-methyl-pyrazolo[3,4-c]pyridazin-5-yl]-1H-pyrimidine-2,4-dione]
